# Values of other authors, collected in patent US20070254941A1, “Subtantially pure ropinirole hydrochloride, polymorphic form of ropinirole and process for their preparation” (Glenmark Pharmaceuticals Limited, priority 2006, published 2007).
# Where a name gives a salt, the structure may show the parent alone.
# What was measured:
# D3 dopamine receptor [1] = molecular target: T1, D3 dopamine receptor (Homo sapiens, UniProt P35462)
# D3 dopamine receptor [2] = molecular target: T1, D3 dopamine receptor; details: D3 versus D2 or D4
# D2 dopamine receptor = D2 dopamine receptor (Homo sapiens, UniProt P14416)
# Sequence of D2 dopamine receptor (P14416 whole entry): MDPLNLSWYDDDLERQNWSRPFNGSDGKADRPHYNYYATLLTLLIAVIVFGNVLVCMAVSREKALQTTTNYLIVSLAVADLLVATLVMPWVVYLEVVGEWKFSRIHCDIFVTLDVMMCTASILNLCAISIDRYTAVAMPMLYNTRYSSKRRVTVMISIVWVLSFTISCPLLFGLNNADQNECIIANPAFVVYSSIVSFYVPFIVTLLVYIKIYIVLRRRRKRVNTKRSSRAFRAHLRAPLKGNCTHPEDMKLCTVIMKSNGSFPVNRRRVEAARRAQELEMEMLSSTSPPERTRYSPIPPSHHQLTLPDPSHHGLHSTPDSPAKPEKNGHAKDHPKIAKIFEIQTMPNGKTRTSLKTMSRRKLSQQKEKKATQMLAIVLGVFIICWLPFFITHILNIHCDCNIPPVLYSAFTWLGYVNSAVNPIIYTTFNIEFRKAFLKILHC
# T1 sequence (P35462 whole entry): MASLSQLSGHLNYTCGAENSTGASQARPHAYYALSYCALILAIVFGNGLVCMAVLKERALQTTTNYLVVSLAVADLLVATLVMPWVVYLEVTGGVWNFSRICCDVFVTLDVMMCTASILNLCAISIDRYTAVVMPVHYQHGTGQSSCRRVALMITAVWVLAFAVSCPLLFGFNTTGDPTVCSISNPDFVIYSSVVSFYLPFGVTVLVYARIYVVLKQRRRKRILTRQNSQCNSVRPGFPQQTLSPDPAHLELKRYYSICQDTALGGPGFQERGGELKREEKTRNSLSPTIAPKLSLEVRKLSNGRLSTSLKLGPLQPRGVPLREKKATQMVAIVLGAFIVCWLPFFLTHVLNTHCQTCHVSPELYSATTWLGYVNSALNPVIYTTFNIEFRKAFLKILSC
smiles,measurement,setting,value
CCCN(CCC)CCc1cccc2c1CC(=O)N2 [Ropinirole hydrochloride],intrinsic activity at D3 dopamine receptor subtype,D3 dopamine receptor [1],full intrinsic activity
same,affinity for D3 relative to D2 or D4 receptor subtypes,D3 dopamine receptor [2],higher affinity to D3 than to D2 or D4
same,intrinsic activity at D2 dopamine receptor subtype,D2 dopamine receptor,full intrinsic activity
